According to paper PMC5458547, “Discovery of first-in-class reversible dual small molecule inhibitors against G9a and DNMTs in hematological malignancies” (Nature Communications, 2017):
pKd: −log10 of the molar value.

How the values were obtained:
Test in all cases: KINOMEscan kinase profiling
Assay type in all cases: binding
[1] = target: T1, ABL1(E255K)-phosphorylated (Homo sapiens, UniProt P00519, E255K); details: read-out: Percent Control
T1 construct: purchased DiscoverX KINOMEscan (kinases); BPS Bioscience (epigenetic targets)
Method: (§1) Kinase Selectivity Profiling
(§2) (out of which 90 are non-mutant kinases) was performed at DiscoverRx (http://www.discoverx.com/home) using the KINOMEscan™ screening platform at a test concentration of 10 µM. Results for primary screen […]
(§3) positive control signal) / (negative control signal – positive control signal) *100, where negative control corresponds to DMSO treatment (100%) and positive control to the signal obtained with a control competitive compound (0%). […]
(§4) using the Hill equation. Each target was assayed in duplicate. […]

ABL1-nonphosphorylated = target: T2, ABL1-nonphosphorylated (Homo sapiens, UniProt P00519); details: read-out: Percent Control
T2 construct: purchased DiscoverX KINOMEscan (kinases); BPS Bioscience (epigenetic targets)
Method: as §1, §2, §3, §4

ACVR1B = target: T3, ACVR1B (Homo sapiens, UniProt P36896); details: read-out: Percent Control
T3 construct: purchased DiscoverX KINOMEscan (kinases); BPS Bioscience (epigenetic targets)
Method: as §1, §2, §3, §4

ADCK3 = target: T4, ADCK3 (Homo sapiens, UniProt Q8NI60); details: read-out: Percent Control
T4 construct: purchased DiscoverX KINOMEscan (kinases); BPS Bioscience (epigenetic targets)
Method: as §1, §2, §3, §4

AKT1 = target: T5, AKT1 (Homo sapiens, UniProt P31749); details: read-out: Percent Control
T5 construct: purchased DiscoverX KINOMEscan (kinases); BPS Bioscience (epigenetic targets)
Method: as §1, §2, §3, §4

BRAF(V600E) = target: T6, BRAF(V600E) (Homo sapiens, UniProt P15056, V600E); details: read-out: Percent Control
T6 construct: purchased DiscoverX KINOMEscan (kinases); BPS Bioscience (epigenetic targets)
Method: as §1, §2, §3, §4

CDK2 = target: T7, CDK2 (Homo sapiens, UniProt P24941); details: read-out: Percent Control
T7 construct: purchased DiscoverX KINOMEscan (kinases); BPS Bioscience (epigenetic targets)
Method: as §1, §2, §3, §4

DYRK1B = target: T8, DYRK1B (Homo sapiens, UniProt Q9Y463); details: read-out: Percent Control
T8 construct: purchased DiscoverX KINOMEscan (kinases); BPS Bioscience (epigenetic targets)
Method: as §1, §2, §3, §4

EPHA2 = target: T9, EPHA2 (Homo sapiens, UniProt P29317); details: read-out: Percent Control
T9 construct: purchased DiscoverX KINOMEscan (kinases); BPS Bioscience (epigenetic targets)
T9 sequence (P29317 24-976): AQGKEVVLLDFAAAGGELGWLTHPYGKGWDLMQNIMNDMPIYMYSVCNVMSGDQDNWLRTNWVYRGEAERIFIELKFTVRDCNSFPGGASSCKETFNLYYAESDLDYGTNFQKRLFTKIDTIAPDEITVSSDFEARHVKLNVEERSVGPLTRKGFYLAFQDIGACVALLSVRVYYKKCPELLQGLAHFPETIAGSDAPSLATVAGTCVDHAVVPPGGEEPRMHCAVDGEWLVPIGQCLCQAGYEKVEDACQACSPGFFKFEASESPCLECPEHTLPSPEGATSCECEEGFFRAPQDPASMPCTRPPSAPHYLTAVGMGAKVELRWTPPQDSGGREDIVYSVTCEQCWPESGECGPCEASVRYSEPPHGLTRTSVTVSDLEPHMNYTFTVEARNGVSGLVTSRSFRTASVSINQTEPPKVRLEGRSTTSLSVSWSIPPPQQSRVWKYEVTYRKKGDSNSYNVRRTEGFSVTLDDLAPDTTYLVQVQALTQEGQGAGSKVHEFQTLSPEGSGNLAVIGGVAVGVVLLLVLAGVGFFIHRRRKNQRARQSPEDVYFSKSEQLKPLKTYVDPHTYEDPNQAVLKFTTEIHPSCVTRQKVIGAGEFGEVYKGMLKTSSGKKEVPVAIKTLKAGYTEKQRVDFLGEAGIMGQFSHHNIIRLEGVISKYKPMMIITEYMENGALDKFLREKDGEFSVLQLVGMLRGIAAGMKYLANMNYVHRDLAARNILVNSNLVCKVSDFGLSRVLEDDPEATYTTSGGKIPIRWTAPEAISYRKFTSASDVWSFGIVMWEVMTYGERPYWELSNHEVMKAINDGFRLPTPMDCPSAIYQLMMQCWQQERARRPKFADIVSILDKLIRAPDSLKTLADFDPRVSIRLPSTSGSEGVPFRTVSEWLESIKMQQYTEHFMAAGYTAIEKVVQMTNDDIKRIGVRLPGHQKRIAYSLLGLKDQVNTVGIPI
Method: as §1, §2, §3, §4

ERBB2 = target: T10, ERBB2 (Homo sapiens, UniProt P04626)
T10 construct: purchased DiscoverRx (DiscoverX), KINOMEscan screening platform
T10 sequence (P04626 23-1255): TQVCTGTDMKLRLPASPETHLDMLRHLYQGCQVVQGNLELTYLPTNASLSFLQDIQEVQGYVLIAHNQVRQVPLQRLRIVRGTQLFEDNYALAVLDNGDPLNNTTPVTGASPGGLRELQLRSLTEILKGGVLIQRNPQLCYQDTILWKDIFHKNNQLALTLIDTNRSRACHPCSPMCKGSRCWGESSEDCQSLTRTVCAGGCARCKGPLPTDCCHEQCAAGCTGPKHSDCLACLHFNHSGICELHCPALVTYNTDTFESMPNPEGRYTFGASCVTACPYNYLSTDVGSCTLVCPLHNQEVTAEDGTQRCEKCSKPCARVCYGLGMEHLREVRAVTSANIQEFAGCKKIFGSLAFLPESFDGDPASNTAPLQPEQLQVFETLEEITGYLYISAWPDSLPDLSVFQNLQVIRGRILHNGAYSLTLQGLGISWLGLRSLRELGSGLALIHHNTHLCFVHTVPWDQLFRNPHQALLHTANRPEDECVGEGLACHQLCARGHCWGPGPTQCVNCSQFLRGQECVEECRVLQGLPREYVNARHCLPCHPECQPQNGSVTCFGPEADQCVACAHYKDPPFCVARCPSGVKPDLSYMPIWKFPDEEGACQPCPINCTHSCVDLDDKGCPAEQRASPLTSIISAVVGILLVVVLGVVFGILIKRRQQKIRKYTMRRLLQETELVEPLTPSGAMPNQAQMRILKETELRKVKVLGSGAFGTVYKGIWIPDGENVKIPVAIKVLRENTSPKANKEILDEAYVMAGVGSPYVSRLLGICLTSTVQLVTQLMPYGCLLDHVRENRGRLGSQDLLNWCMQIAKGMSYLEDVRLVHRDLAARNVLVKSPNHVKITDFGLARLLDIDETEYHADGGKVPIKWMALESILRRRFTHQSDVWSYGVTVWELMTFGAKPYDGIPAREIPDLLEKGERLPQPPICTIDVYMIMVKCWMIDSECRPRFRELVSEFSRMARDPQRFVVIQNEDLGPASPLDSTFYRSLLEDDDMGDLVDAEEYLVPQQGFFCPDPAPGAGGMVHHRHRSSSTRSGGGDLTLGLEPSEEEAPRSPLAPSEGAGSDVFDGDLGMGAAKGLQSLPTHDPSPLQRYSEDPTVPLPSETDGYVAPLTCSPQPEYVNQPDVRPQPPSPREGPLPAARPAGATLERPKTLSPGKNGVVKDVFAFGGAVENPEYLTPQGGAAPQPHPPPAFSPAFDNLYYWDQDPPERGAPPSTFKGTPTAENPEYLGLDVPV
Method: as §1, §2, §3, §4

ERBB4 = target: T11, ERBB4 (Homo sapiens, UniProt Q15303); details: read-out: Percent Control
T11 construct: purchased DiscoverX KINOMEscan (kinases); BPS Bioscience (epigenetic targets)
Method: as §1, §2, §3, §4

FGFR3 = target: T12, FGFR3 (Homo sapiens, UniProt P22607); details: read-out: Percent Control
T12 construct: purchased DiscoverX KINOMEscan (kinases); BPS Bioscience (epigenetic targets)
Method: as §1, §2, §3, §4

FLT3 = target: T13, FLT3 (Homo sapiens, UniProt P36888); details: read-out: Percent Control
T13 construct: purchased DiscoverX KINOMEscan (kinases); BPS Bioscience (epigenetic targets)
Method: as §1, §2, §3, §4

IKK-alpha = target: T14, IKK-alpha (Homo sapiens, UniProt O15111); details: read-out: Percent Control
T14 construct: purchased DiscoverX KINOMEscan (kinases); BPS Bioscience (epigenetic targets)
Method: as §1, §2, §3, §4

IKK-beta = target: T15, IKK-beta (Homo sapiens, UniProt O14920); details: read-out: Percent Control
T15 construct: purchased DiscoverX KINOMEscan (kinases); BPS Bioscience (epigenetic targets)
Method: as §1, §2, §3, §4

INSR = target: T16, INSR (Homo sapiens, UniProt P06213); details: read-out: Percent Control
T16 construct: purchased DiscoverX KINOMEscan (kinases); BPS Bioscience (epigenetic targets)
T16 sequence (P06213 28-1382): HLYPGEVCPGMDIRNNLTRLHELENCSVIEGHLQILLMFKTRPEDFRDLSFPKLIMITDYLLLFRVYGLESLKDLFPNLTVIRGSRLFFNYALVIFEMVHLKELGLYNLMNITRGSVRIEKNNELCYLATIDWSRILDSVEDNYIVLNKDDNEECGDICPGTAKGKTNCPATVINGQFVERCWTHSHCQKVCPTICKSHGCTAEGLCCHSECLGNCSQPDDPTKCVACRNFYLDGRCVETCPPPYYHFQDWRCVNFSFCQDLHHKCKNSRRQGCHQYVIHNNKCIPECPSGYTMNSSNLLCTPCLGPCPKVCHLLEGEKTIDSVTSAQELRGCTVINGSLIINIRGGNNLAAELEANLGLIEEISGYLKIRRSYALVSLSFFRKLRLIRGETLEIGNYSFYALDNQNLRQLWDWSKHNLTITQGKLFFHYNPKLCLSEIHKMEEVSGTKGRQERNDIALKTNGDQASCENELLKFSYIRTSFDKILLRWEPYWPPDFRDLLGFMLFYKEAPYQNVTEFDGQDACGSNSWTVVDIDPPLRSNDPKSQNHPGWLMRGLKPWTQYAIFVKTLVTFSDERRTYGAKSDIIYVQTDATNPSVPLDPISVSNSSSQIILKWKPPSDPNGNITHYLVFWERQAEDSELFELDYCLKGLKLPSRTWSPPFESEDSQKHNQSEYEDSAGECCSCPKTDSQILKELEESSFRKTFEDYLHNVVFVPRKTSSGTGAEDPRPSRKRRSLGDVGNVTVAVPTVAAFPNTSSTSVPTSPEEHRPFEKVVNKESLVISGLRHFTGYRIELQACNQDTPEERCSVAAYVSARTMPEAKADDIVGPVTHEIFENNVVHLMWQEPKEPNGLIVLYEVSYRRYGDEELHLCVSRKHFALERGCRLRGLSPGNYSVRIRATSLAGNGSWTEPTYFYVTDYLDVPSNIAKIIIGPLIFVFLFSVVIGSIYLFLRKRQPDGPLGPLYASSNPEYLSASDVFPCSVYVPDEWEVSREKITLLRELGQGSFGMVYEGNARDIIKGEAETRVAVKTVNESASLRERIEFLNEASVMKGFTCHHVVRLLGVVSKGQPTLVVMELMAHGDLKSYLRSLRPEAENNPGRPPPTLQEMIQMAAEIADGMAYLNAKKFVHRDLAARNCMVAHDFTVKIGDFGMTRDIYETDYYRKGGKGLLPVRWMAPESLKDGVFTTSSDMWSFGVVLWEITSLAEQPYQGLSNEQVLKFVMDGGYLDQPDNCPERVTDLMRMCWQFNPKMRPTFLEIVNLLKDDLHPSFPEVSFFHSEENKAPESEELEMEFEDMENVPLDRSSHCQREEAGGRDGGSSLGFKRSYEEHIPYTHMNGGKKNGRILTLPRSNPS
Method: as §1, §2, §3, §4

[2] = target: T17, JAK3(JH1domain-catalytic) (Homo sapiens, UniProt P52333)
T17 construct: JAK3(JH1domain-catalytic); purchased DiscoverRx (DiscoverX), KINOMEscan screening platform
T17 sequence (P52333 822-1111 limits assumed): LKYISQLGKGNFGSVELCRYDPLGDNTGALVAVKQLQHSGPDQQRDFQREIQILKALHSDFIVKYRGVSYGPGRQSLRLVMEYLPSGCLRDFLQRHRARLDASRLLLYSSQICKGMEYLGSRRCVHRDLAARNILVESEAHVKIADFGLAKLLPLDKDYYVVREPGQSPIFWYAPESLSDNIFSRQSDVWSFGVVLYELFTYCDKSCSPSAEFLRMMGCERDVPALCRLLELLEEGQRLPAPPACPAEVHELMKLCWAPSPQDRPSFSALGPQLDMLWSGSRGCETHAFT
Method: as §1, §2, §3, §4

JNK1 = target: T18, JNK1 (Homo sapiens, UniProt P45983); details: read-out: Percent Control
T18 construct: purchased DiscoverX KINOMEscan (kinases); BPS Bioscience (epigenetic targets)
Method: as §1, §2, §3, §4

KIT = target: T19, KIT (Homo sapiens, UniProt P10721); details: read-out: Percent Control
T19 construct: purchased DiscoverX KINOMEscan (kinases); BPS Bioscience (epigenetic targets)
Method: as §1, §2, §3, §4

KIT(D816V) = target: T20, KIT(D816V) (Homo sapiens, UniProt P10721, D816V); details: read-out: Percent Control
T20 construct: purchased DiscoverX KINOMEscan (kinases); BPS Bioscience (epigenetic targets)
Method: as §1, §2, §3, §4

MAP3K4 = target: T21, MAP3K4 (Homo sapiens, UniProt Q9Y6R4); details: read-out: Percent Control
T21 construct: purchased DiscoverX KINOMEscan (kinases); BPS Bioscience (epigenetic targets)
Method: as §1, §2, §3, §4

MARK3 = target: T22, MARK3 (Homo sapiens, UniProt P27448); details: read-out: Percent Control
T22 construct: purchased DiscoverX KINOMEscan (kinases); BPS Bioscience (epigenetic targets)
Method: as §1, §2, §3, §4

MEK1 = target: T23, MEK1 (Homo sapiens, UniProt Q02750); details: read-out: Percent Control
T23 construct: purchased DiscoverX KINOMEscan (kinases); BPS Bioscience (epigenetic targets)
Method: as §1, §2, §3, §4

MEK2 = target: T24, MEK2 (Homo sapiens, UniProt P36507); details: read-out: Percent Control
T24 construct: purchased DiscoverX KINOMEscan (kinases); BPS Bioscience (epigenetic targets)
Method: as §1, §2, §3, §4

MET = target: T25, MET (Homo sapiens, UniProt P08581); details: read-out: Percent Control
T25 construct: purchased DiscoverX KINOMEscan (kinases); BPS Bioscience (epigenetic targets)
Method: as §1, §2, §3, §4

MKNK2 = target: T26, MKNK2 (Homo sapiens, UniProt Q9HBH9); details: read-out: Percent Control
T26 construct: purchased DiscoverX KINOMEscan (kinases); BPS Bioscience (epigenetic targets)
T26 sequence (Q9HBH9 whole entry): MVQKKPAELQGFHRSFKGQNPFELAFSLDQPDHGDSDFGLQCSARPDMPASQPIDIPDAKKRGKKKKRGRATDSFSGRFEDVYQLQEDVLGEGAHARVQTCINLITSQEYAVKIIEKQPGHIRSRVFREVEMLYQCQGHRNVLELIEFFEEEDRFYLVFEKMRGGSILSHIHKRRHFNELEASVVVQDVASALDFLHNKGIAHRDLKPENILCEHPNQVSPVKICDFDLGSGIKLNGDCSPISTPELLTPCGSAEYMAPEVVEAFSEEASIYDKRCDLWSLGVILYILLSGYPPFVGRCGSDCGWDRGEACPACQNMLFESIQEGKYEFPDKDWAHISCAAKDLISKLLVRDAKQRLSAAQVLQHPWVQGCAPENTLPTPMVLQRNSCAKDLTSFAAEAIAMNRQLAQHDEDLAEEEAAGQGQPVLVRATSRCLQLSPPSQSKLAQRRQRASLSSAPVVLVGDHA
Method: as §1, §2, §3, §4

PAK1 = target: T27, PAK1 (Homo sapiens, UniProt Q13153); details: read-out: Percent Control
T27 construct: purchased DiscoverX KINOMEscan (kinases); BPS Bioscience (epigenetic targets)
Method: as §1, §2, §3, §4

PAK4 = target: T28, PAK4 (Homo sapiens, UniProt O96013); details: read-out: Percent Control
T28 construct: purchased DiscoverX KINOMEscan (kinases); BPS Bioscience (epigenetic targets)
Method: as §1, §2, §3, §4

PDGFRA = target: T29, PDGFRA (Homo sapiens, UniProt P16234); details: read-out: Percent Control
T29 construct: purchased DiscoverX KINOMEscan (kinases); BPS Bioscience (epigenetic targets)
Method: as §1, §2, §3, §4

PIK3CA = target: T30, PIK3CA (Homo sapiens, UniProt P42336); details: read-out: Percent Control
T30 construct: purchased DiscoverX KINOMEscan (kinases); BPS Bioscience (epigenetic targets)
Method: as §1, §2, §3, §4

PIM1 = target: T31, PIM1 (Homo sapiens, UniProt P11309); details: read-out: Percent Control
T31 construct: purchased DiscoverX KINOMEscan (kinases); BPS Bioscience (epigenetic targets)
T31 sequence (P11309 whole entry): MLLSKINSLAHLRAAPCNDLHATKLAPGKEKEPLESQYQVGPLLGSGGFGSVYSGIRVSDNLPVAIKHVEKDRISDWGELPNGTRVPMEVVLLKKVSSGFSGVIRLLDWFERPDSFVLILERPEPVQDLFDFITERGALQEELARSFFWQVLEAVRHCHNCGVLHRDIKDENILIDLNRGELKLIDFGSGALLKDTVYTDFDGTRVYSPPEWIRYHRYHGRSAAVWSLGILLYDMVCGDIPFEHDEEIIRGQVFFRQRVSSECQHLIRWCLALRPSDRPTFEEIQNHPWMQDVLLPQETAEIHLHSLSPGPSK
Method: as §1, §2, §3, §4

PLK4 = target: T32, PLK4 (Homo sapiens, UniProt O00444); details: read-out: Percent Control
T32 construct: purchased DiscoverX KINOMEscan (kinases); BPS Bioscience (epigenetic targets)
Method: as §1, §2, §3, §4

RET = target: T33, RET (Homo sapiens, UniProt P07949); details: read-out: Percent Control
T33 construct: purchased DiscoverX KINOMEscan (kinases); BPS Bioscience (epigenetic targets)
Method: as §1, §2, §3, §4

RIOK2 = target: T34, RIOK2 (Homo sapiens, UniProt Q9BVS4); details: read-out: Percent Control
T34 construct: purchased DiscoverX KINOMEscan (kinases); BPS Bioscience (epigenetic targets)
Method: as §1, §2, §3, §4

[3] = target: T35, RSK2(Kin.Dom.1-N-terminal) (Homo sapiens, UniProt P51812); details: read-out: Percent Control
T35 construct: RSK2(Kin.Dom.1-N-terminal); purchased DiscoverX KINOMEscan (kinases); BPS Bioscience (epigenetic targets)
T35 sequence (P51812 1-397 limits assumed): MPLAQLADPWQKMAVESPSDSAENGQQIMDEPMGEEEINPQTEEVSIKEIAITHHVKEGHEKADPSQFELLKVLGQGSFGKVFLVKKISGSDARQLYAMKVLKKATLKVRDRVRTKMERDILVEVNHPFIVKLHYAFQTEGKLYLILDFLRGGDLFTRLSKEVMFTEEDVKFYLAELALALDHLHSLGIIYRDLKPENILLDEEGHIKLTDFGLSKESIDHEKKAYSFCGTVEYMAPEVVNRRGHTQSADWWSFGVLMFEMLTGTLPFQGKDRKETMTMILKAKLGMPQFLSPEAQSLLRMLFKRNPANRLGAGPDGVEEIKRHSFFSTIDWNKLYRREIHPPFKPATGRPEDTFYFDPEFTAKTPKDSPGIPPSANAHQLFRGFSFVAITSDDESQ
Method: as §1, §2, §3, §4

SRPK3 = target: T36, SRPK3 (Homo sapiens, UniProt Q9UPE1); details: read-out: Percent Control
T36 construct: purchased DiscoverX KINOMEscan (kinases); BPS Bioscience (epigenetic targets)
Method: as §1, §2, §3, §4

TGFBR1 = target: T37, TGFBR1 (Homo sapiens, UniProt P36897); details: read-out: Percent Control
T37 construct: purchased DiscoverX KINOMEscan (kinases); BPS Bioscience (epigenetic targets)
Method: as §1, §2, §3, §4

TSSK1B = target: T38, TSSK1B (Homo sapiens, UniProt Q9BXA7); details: read-out: Percent Control
T38 construct: purchased DiscoverX KINOMEscan (kinases); BPS Bioscience (epigenetic targets)
Method: as §1, §2, §3, §4

[4] = target: T39, TYK2(JH1domain-catalytic) (Homo sapiens, UniProt P29597); details: read-out: Percent Control
T39 construct: TYK2(JH1domain-catalytic); purchased DiscoverX KINOMEscan (kinases); BPS Bioscience (epigenetic targets)
Method: as §1, §2, §3, §4

[5] = 10 µM, read-out: Percent Control

Compound: COc1cc2c(NC3CCN(C)CC3)cc(-c3ccc(C)o3)nc2cc1OCCCN1CCCC1 [CM-272, 6-methoxy-2-(5-methyl-2-furyl)-N-(1-methyl-4-piperidyl)-7-(3-pyrrolidin-1-ylpropoxy)quinolin-4-amine]
- remaining binding at 10 µM [1]: 5.5%
- remaining binding at 10 µM (ABL1-nonphosphorylated): 9.4%
- remaining binding at 10 µM (ACVR1B): 81%
- remaining binding at 10 µM (ADCK3): 100%
- remaining binding at 10 µM (AKT1): 100%
- remaining binding at 10 µM (BRAF(V600E)): 27%
- remaining binding at 10 µM (CDK2): 100%
- remaining binding at 10 µM (DYRK1B): 100%
- remaining binding at 10 µM (EPHA2): 100%
- remaining binding at 10 µM (ERBB2; [5]): 0%
- pKd (ERBB2; KINOMEscan): 5.80
- remaining binding at 10 µM (ERBB4): 97%
- remaining binding at 10 µM (FGFR3): 100%
- remaining binding at 10 µM (FLT3): 100%
- remaining binding at 10 µM (IKK-alpha): 45%
- remaining binding at 10 µM (IKK-beta): 13%
- remaining binding at 10 µM (INSR): 5.1%
- remaining binding at 10 µM [2, 5]: 0%
- pKd ([2]; KINOMEscan): 5.74
- remaining binding at 10 µM (JNK1): 25%
- remaining binding at 10 µM (KIT): 100%
- remaining binding at 10 µM (KIT(D816V)): 100%
- remaining binding at 10 µM (MAP3K4): 93%
- remaining binding at 10 µM (MARK3): 100%
- remaining binding at 10 µM (MEK1): 45%
- remaining binding at 10 µM (MEK2): 22%
- remaining binding at 10 µM (MET): 91%
- remaining binding at 10 µM (MKNK2): 18%
- remaining binding at 10 µM (PAK1): 69%
- remaining binding at 10 µM (PAK4): 100%
- remaining binding at 10 µM (PDGFRA): 14%
- remaining binding at 10 µM (PIK3CA): 40%
- remaining binding at 10 µM (PIM1): 93%
- remaining binding at 10 µM (PLK4): 80%
- remaining binding at 10 µM (RET): 100%
- remaining binding at 10 µM (RIOK2): 27%
- remaining binding at 10 µM [3]: 46%
- remaining binding at 10 µM (SRPK3): 100%
- remaining binding at 10 µM (TGFBR1): 78%
- remaining binding at 10 µM (TSSK1B): 100%
- remaining binding at 10 µM [4]: 22%
